Patent publication US20220324909A1, “THERAPEUTIC PEPTIDES” (COHBAR, INC., priority 2019, published 2022)
Non-standard residues stand in square brackets, D forms with d. No end group written: not given here.

Legend:
3T3-L1 mouse adipocytes [1] = assay: Free fatty acid levels in cultured 3T3-L1 mouse adipocytes and insulin dependence (Example 17); format: cell-based; details: isoproterenol 0.1 nM; for Free Fatty Acid Levels, Percent of Isoproterenol Control Activity No Insulin: peptide 10 μM alone, relative to isoproterenol treated cells; for Free Fatty Acid Levels, Percent of Isoproterenol Control Activity With Insulin: peptide 10 μM with 0.25 nM insulin, relative to 0.25 nM insulin treated cells
H4-IIE cells = assay: Glucose production in cultured H4-IIE cells and insulin dependence; format: cell-based, rat; details: 24 h; for Glucose Production, Percent of Control Activity No Insulin: peptide 10 μM alone, relative to untreated cells; for Glucose Production, Percent of Control Activity With Insulin: peptide 10 μM with 800 μM insulin, relative to insulin treated cells
Procedure, shortened: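 Rat hepatoma cells incubated 24 h with peptides; glucose released into conditioned medium measured colorimetrically at 570 nm. Untreated cells serve as maximal-production reference, with insulin at […] as a modest inhibitor. Values are means of 2-4 independent experiments run in triplicate.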

C2C12 cells [2] = assay: ATP levels in cultured C2C12 cells (CellTiter-Glo); format: cell-based, mouse; details: peptide 10 μM, 3 days with readdition every 24 hours, relative to 0.1% DMSO control
Method: The effect of the peptides on cellular metabolism can be assessed using an assay of ATP levels in cultured cells such as mouse myoblast cells. Peptides were initially prepared as 10 mM stock in DMSO, diluted to 1 mM in H2O, and used at a final concentration of 10 μM (0.1% DMSO). […] Lovastatin was prepared as 10 mM stock in 70% Ethanol and used at final concentration of 10 μM containing 0.1% DMSO. CellTiter-Glo® Assay kit was purchased from Promega (Madison, Wis.). […] C2C12 cells were grown in DMEM medium supplemented with 20% FBS with 100 IU/ml penicillin and 100 μg/ml streptomycin. […] C2C12 cells were seeded at 800 cells per well on 96-well plates. […] ATP levels were determined using a CellTiter-Glo Assay kit according to the manufacturer's instructions. Luminescence for each sample well on the plate was measured using a Cytation 3 plate reader (BioTek, Winooski, Vt.). Activity was calculated relative to 0.1% DMSO treated control. The relative standard deviation of the result for the 0.1% DMSO treated control was <5%. […] ATP levels for treatment with lovastatin (10 μM) were <50% of the 0.1% DMSO treated control value.

C2C12 cells [3] = assay: Caspase 3/7 activity in C2C12 cells; format: cell-based, mouse; details: peptide 10 μM, 24 hours, relative to 0.1% DMSO control
Method: The effect of the peptides on cell death/survival can be assessed using a caspase-3/7 assay in cultured cells such as mouse myoblast cells. Peptides were initially prepared as 10 mM stock in DMSO, diluted to 1 mM in H2O, and used at a final concentration of 10 μM (0.1% DMSO). […] Staurosporine (Abcam, Cambridge, Mass.) was dissolved at 10 mM in DMSO as a stock solution. Caspase-Glo 3/7 Assay Reagent was purchased from Promega (Madison, Wis.). C2C12 cell line was purchased from American Type Culture Collection (Manassas, Va.). C2C12 cells were grown in DMEM supplemented with 20% FBS with 100 IU/ml penicillin and 100 μg/ml streptomycin. […] C2C12 cells were seeded at 4,000 cells per well on 96-well plates. […] Caspase 3/7 activity was determined using a Caspase-Glo 3/7 Assay kit according to the manufacturer's instructions. Luminescence for each sample well on the plate was measured using a Cytation 3 plate reader (BioTek, Winooski, Vt.). Activity was calculated relative to 0.1% DMSO control.

C2C12 cells [4] = assay: Cell proliferation in C2C12 cells (Cyquant DNA dye binding); format: cell-based, mouse; details: peptide 10 μM, 72 hours with readdition every 24 hours, relative to 0.1% DMSO control
Method: The effect of the peptides on cell proliferation was assessed using a DNA dye binding assay in cultured cells such as mouse myoblast cells. Peptides were initially prepared as 10 mM stock in DMSO, diluted to 1 mM in H2O, and added at a final concentration of 10 μM (0.1% DMSO). Lovastatin was used as a growth arrest control at final concentration of 10 μM. […] C2C12 cells were grown in DMEM supplemented with 20% FBS with 100 IU/ml penicillin and 100 μg/ml streptomycin. […] C2C12 cells were seeded at 800 cells per well on 96-well plates. […] Cell proliferation was determined using Cyquant Direct Nucleic Acid Stain (Thermo Fisher Scientific, Waltham, Mass.) according to the manufacturer's instructions. Fluorescence for each sample well on the plate was measured using a Cytation 3 plate reader at Ex/Em=495/535 nm (BioTek, Winooski, Vt.). Activity was calculated relative to 0.1% DMSO untreated control. The relative standard deviation for the lovastatin control was <27%. The cell proliferation for the lovastatin control was <25% of the value for untreated control.

3T3-L1 mouse adipocytes [5] = assay: Free fatty acid levels in 3T3-L1 mouse adipocytes (Example 12, 10 μM); format: cell-based; details: peptide 10 μM, 20-22 h then 3 h with isoproterenol 1 nM
Method: The effect of the peptides on fatty acid metabolism can be assessed using an assay of free fatty acid levels in cultured cells such as mouse adipocytes. Peptides were initially prepared as 10 mM stock in DMSO, diluted to 1 mM in H2O, and used at a final concentration of 10 μM (0.1% DMSO). […] Insulin at 100 nM was added to control wells.

Compound	Free Fatty Acid Levels, Percent of Isoproterenol Control Activity No Insulin (3T3-L1 mouse adipocytes [1])	Free Fatty Acid Levels, Percent of Isoproterenol Control Activity With Insulin (3T3-L1 mouse adipocytes [1])	Glucose Production, Percent of Control Activity No Insulin (H4-IIE cells)	Glucose Production, Percent of Control Activity With Insulin (H4-IIE cells)	ATP Levels, Percent of Control Activity (C2C12 cells [2])	Caspase 3/7 Activity, Percent of Control Activity (C2C12 cells [3])	Cell Proliferation, Percent of Control (C2C12 cells [4])	Free Fatty Acid Levels, Percent of Isoproterenol Control Activity (3T3-L1 mouse adipocytes [5])
16 (RRMMGMVFQCLSG[dA]) [compound 16]	110%	63.0%	99.8%	56.8%	94.7%	93.1%	89.6%	58.8%
10 (RRMMGMVYQCLCG[dA]; cysteine pairing not given here) [compound 10]	97.9%	48.7%	92.2%	38.2%	100.9%	96.6%	101.5%	24.9%
CSCC[C@H](NC(=O)CNC(=O)[C@H](CCSC)NC(=O)[C@H](CCSC)NC(=O)[C@H](CCCNC(=N)N)NC(=O)[C@@H](N)CCCNC(=N)N)C(=O)N[C@H](C(=O)N[C@@H](Cc1ccccc1)C(=O)N[C@@H](CCC(N)=O)C(=O)N[C@@H](CO)C(=O)N[C@@H](CC(C)C)C(=O)N[C@@H](CS)C(=O)NCC(=O)N[C@H](C)C(=O)O)C(C)C [compound 15]	109%	89.0%	101.4%	63.9%	100.4%	101.6%	93.5%	90.8%
17 (RRMMGMVFQSLSG[dA]) [compound 17]	98.4%	87.7%	101.7%	95.5%	100.0%	92.0%	89.1%	77.9%
12 (RRMMGMVEQCLCG[dA]; cysteine pairing not given here) [compound 12]	103%	54.6%	96.4%	44.8%	102.6%	105.1%	119.3%	51.3%
18 (RRXXGXVFQCLCGA; (3)..(3) Xaa is Norleucine; (4)..(4) Xaa is Norleucine; (6)..(6) Xaa is Norleucine; (14)..(14) D-Ala) [compound 18]	110%	81.1%	103.1%	140.4%	95.5%	93.8%	74.9%	77.3%
19 (RRMVFQCLCG[dA]; cysteine pairing not given here) [compound 19]	105%	79.0%	100.8%	68.9%	93.6%	100.1%	92.3%	31.0%
13 (RRMMGMVFQELCG[dA]) [compound 13]	105%	56.4%	100.9%	68%	102.8%	99.0%	90.0%	66.0%
11 (RRMMGMVAQCLCGA) [compound 11]	104%	58.5%	96.6%	57.5%	98.0%	99.1%	88.1%	59.2%
14 (RRMMGMVFQCLEG[dA]) [compound 14]	100%	51.0%	104.4%	159.6%	102.1%	100.1%	97.2%	46.5%
CSCC[C@H](NC(=O)CNC(=O)[C@H](CCSC)NC(=O)[C@H](CCSC)NC(=O)[C@H](CCCNC(=N)N)NC(=O)[C@H](CCCNC(=N)N)NC(=O)[C@@H](N)CCSC)C(=O)N[C@H](C(=O)N[C@@H](Cc1ccccc1)C(=O)N[C@@H](CCC(N)=O)C(=O)N[C@@H](CS)C(=O)N[C@@H](CC(C)C)C(=O)N[C@@H](CS)C(=O)NCC(=O)N[C@@H](CC(C)C)C(=O)O)C(C)C [compound 7]	102%	71.3%	54.2%	64.2%	106.6%	109.4%	94.0%	34.6%
8 (RRMMGMVFQCLCG[dA]; cysteine pairing not given here) [compound 8]	106%	57.8%	78.9%	102.8%	99.5%	97.6%	98.1%	34.7%
